Measured values taken from PubChem BioAssay (NCI).
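Cells were grown in 96-well plates and exposed to each compound for 48 hours at five concentrations; endpoints were interpolated linearly between bracketing concentrations, or set to the highest concentration if not reached. GI50: concentration for 50% inhibition of growth. The concentration for full growth arrest is given as TGI.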

Experiments:
Test in all cases: DTP human tumour cell line panel, 48 h
RXF 393 renal = tested on: RXF 393 renal
NCI-H460 lung = tested on: NCI-H460 lung
CCRF-CEM leukemia = tested on: CCRF-CEM leukemia
SK-MEL-2 melanoma = tested on: SK-MEL-2 melanoma
MDA-MB-435 = tested on: MDA-MB-435
T-47D breast = tested on: T-47D breast
HCT-15 colon = tested on: HCT-15 colon
PC-3 prostate = tested on: PC-3 prostate
OVCAR-3 ovarian = tested on: OVCAR-3 ovarian
NCI-H23 lung = tested on: NCI-H23 lung
OVCAR-5 ovarian = tested on: OVCAR-5 ovarian
A549 NSCLC = tested on: A549 NSCLC
MALME-3M melanoma = tested on: MALME-3M melanoma
786-0 renal = tested on: 786-0 renal
U251 CNS = tested on: U251 CNS
A498 renal = tested on: A498 renal
CAKI-1 renal = tested on: CAKI-1 renal
DU-145 prostate = tested on: DU-145 prostate
SK-MEL-5 melanoma = tested on: SK-MEL-5 melanoma
OVCAR-8 ovarian = tested on: OVCAR-8 ovarian
NCI-H226 lung = tested on: NCI-H226 lung
SK-MEL-28 melanoma = tested on: SK-MEL-28 melanoma
UACC-257 melanoma = tested on: UACC-257 melanoma
UO-31 renal = tested on: UO-31 renal
MCF7 breast = tested on: MCF7 breast
HOP-62 NSCLC = tested on: HOP-62 NSCLC
HCC-2998 colon = tested on: HCC-2998 colon
NCI/ADR-RES ovarian = tested on: NCI/ADR-RES ovarian
SNB-19 CNS = tested on: SNB-19 CNS
ACHN renal = tested on: ACHN renal
SF-295 CNS = tested on: SF-295 CNS
MDA-MB-231 breast = tested on: MDA-MB-231 breast
M14 melanoma = tested on: M14 melanoma
OVCAR-4 ovarian = tested on: OVCAR-4 ovarian
NCI-H522 lung = tested on: NCI-H522 lung
SNB-75 CNS = tested on: SNB-75 CNS
HS 578T breast = tested on: HS 578T breast
SK-OV-3 ovarian = tested on: SK-OV-3 ovarian
RPMI-8226 leukemia = tested on: RPMI-8226 leukemia
KM12 colon = tested on: KM12 colon
HL-60(TB) leukemia = tested on: HL-60(TB) leukemia
TK-10 renal = tested on: TK-10 renal
HOP-92 NSCLC = tested on: HOP-92 NSCLC
HCT-116 colon = tested on: HCT-116 colon
COLO 205 colon = tested on: COLO 205 colon
SF-539 CNS = tested on: SF-539 CNS
BT-549 breast = tested on: BT-549 breast
LOX IMVI melanoma = tested on: LOX IMVI melanoma
K-562 leukemia = tested on: K-562 leukemia
HT29 colon = tested on: HT29 colon
IGROV1 ovarian = tested on: IGROV1 ovarian
SW-620 colon = tested on: SW-620 colon
UACC-62 melanoma = tested on: UACC-62 melanoma
SF-268 CNS = tested on: SF-268 CNS
SN12C renal = tested on: SN12C renal

In the case of `COc1cccc2c1cc1c3c(cc4c(c32)OCO4)C(=O)N1`, the GI50 (RXF 393 renal) is reported as 2.04 µM, the TGI (RXF 393 renal) is reported as 5.5 µM and the GI50 (NCI-H460 lung) is reported as 3.68 µM. The TGI (NCI-H460 lung) was 20.4 µM, the GI50 (CCRF-CEM leukemia) was 5.15 µM and the TGI (CCRF-CEM leukemia) was over 100 µM. For the same molecule, the GI50 (SK-MEL-2 melanoma) was 16.5 µM, the TGI (SK-MEL-2 melanoma) was 44.2 µM and the GI50 (MDA-MB-435) was 10.9 µM. The TGI (MDA-MB-435) was over 100 µM, the GI50 (T-47D breast) was 2.33 µM and the TGI (T-47D breast) was 6.81 µM. For the same molecule, the GI50 (HCT-15 colon) was 4.14 µM, the TGI (HCT-15 colon) was over 100 µM and the GI50 (PC-3 prostate) was 3.55 µM. The TGI (PC-3 prostate) was 24.4 µM, the GI50 (OVCAR-3 ovarian) was 2.5 µM and the TGI (OVCAR-3 ovarian) was 5.58 µM. It also gave a GI50 (NCI-H23 lung) of 3.45 µM, a TGI (NCI-H23 lung) of 13.4 µM and a GI50 (OVCAR-5 ovarian) of 6.56 µM. It also gave a TGI (OVCAR-5 ovarian) of over 100 µM, a GI50 (A549 NSCLC) of 5.27 µM and a TGI (A549 NSCLC) of over 100 µM. It also gave a GI50 (MALME-3M melanoma) of 6.5 µM, a TGI (MALME-3M melanoma) of over 100 µM and a GI50 (786-0 renal) of 7.15 µM. For the same molecule, the TGI (786-0 renal) was 33.3 µM, the GI50 (U251 CNS) was 5.78 µM and the TGI (U251 CNS) was 21.1 µM. The GI50 (A498 renal) was 0.0914 µM, the TGI (A498 renal) was 4 µM and the GI50 (CAKI-1 renal) was 22.4 µM. For the same molecule, the TGI (CAKI-1 renal) was over 100 µM, the GI50 (DU-145 prostate) was 8.79 µM and the TGI (DU-145 prostate) was 66.4 µM. It also gave a GI50 (SK-MEL-5 melanoma) of 4.49 µM, a TGI (SK-MEL-5 melanoma) of over 100 µM and a GI50 (OVCAR-8 ovarian) of 2.28 µM. It also gave a TGI (OVCAR-8 ovarian) of 6.01 µM, a GI50 (NCI-H226 lung) of 5.8 µM and a TGI (NCI-H226 lung) of 54 µM. It also gave a GI50 (SK-MEL-28 melanoma) of 13.1 µM, a TGI (SK-MEL-28 melanoma) of 67.2 µM and a GI50 (UACC-257 melanoma) of 27.3 µM. The TGI (UACC-257 melanoma) was over 100 µM, the GI50 (UO-31 renal) was 3.47 µM and the TGI (UO-31 renal) was 28.9 µM. For the same molecule, the GI50 (MCF7 breast) was 2.96 µM, the TGI (MCF7 breast) was 11.1 µM and the GI50 (HOP-62 NSCLC) was 6.89 µM. The TGI (HOP-62 NSCLC) was 37.6 µM, the GI50 (HCC-2998 colon) was 7.82 µM and the TGI (HCC-2998 colon) was over 100 µM. For the same molecule, the GI50 (NCI/ADR-RES ovarian) was 2.71 µM, the TGI (NCI/ADR-RES ovarian) was 7.46 µM and the GI50 (SNB-19 CNS) was 6.37 µM. The TGI (SNB-19 CNS) was over 100 µM, the GI50 (ACHN renal) was 3.76 µM and the TGI (ACHN renal) was 15.4 µM. For the same molecule, the GI50 (SF-295 CNS) was 7.27 µM, the TGI (SF-295 CNS) was 29.1 µM and the GI50 (MDA-MB-231 breast) was 7.9 µM. For the same molecule, the TGI (MDA-MB-231 breast) was 47.2 µM, the GI50 (M14 melanoma) was 12.1 µM and the TGI (M14 melanoma) was over 100 µM. The GI50 (OVCAR-4 ovarian) was 2.61 µM, the TGI (OVCAR-4 ovarian) was 7.26 µM and the GI50 (NCI-H522 lung) was 2.62 µM. The TGI (NCI-H522 lung) was 8.96 µM, the GI50 (SNB-75 CNS) was 2.4 µM and the TGI (SNB-75 CNS) was 11.1 µM. For the same molecule, the GI50 (HS 578T breast) was 2.33 µM, the TGI (HS 578T breast) was 6.82 µM and the GI50 (SK-OV-3 ovarian) was 13.6 µM. It also gave a TGI (SK-OV-3 ovarian) of 48.9 µM, a GI50 (RPMI-8226 leukemia) of 5.29 µM and a TGI (RPMI-8226 leukemia) of over 100 µM. For the same molecule, the GI50 (KM12 colon) was 4.09 µM, the TGI (KM12 colon) was 23.7 µM and the GI50 (HL-60(TB) leukemia) was 7.59 µM. It also gave a TGI (HL-60(TB) leukemia) of 27.8 µM, a GI50 (TK-10 renal) of 2.27 µM and a TGI (TK-10 renal) of 6.27 µM. The GI50 (HOP-92 NSCLC) was 1.71 µM, the TGI (HOP-92 NSCLC) was 6.98 µM and the GI50 (HCT-116 colon) was 3.63 µM. The TGI (HCT-116 colon) was 13.2 µM, the GI50 (COLO 205 colon) was 2.3 µM and the TGI (COLO 205 colon) was 5.39 µM. It also gave a GI50 (SF-539 CNS) of 4.8 µM, a TGI (SF-539 CNS) of 21.2 µM and a GI50 (BT-549 breast) of 2.08 µM. For the same molecule, the TGI (BT-549 breast) was 4.74 µM, the GI50 (LOX IMVI melanoma) was 4.27 µM and the TGI (LOX IMVI melanoma) was 23.3 µM. The GI50 (K-562 leukemia) was 8.89 µM, the TGI (K-562 leukemia) was over 100 µM and the GI50 (HT29 colon) was 5.02 µM. The TGI (HT29 colon) was 73 µM, the GI50 (IGROV1 ovarian) was 4.26 µM and the TGI (IGROV1 ovarian) was 34.4 µM. For the same molecule, the GI50 (SW-620 colon) was 4.4 µM, the TGI (SW-620 colon) was over 100 µM and the GI50 (UACC-62 melanoma) was 4.65 µM. For the same molecule, the TGI (UACC-62 melanoma) was over 100 µM, the GI50 (SF-268 CNS) was 6.07 µM and the TGI (SF-268 CNS) was 96.3 µM. It also gave a GI50 (SN12C renal) of 2.87 µM and a TGI (SN12C renal) of 19.6 µM.
